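Five compound concentrations were applied to cells in 96-well plates for 48 hours; endpoints were derived by simple linear interpolation of the resulting dose-response curve. GI50 marks 50% less growth. TGI marks complete inhibition of growth.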
Columns and labels:
Test in all cases: NCI tumour cell line growth inhibition, 48 h
CAKI-1 renal = test system: CAKI-1 renal
CCRF-CEM leukemia = test system: CCRF-CEM leukemia
COLO 205 colon = test system: COLO 205 colon
HCT-116 colon = test system: HCT-116 colon
HOP-62 NSCLC = test system: HOP-62 NSCLC
NCI-H226 lung = test system: NCI-H226 lung
NCI-H522 lung = test system: NCI-H522 lung
SF-539 CNS = test system: SF-539 CNS
SNB-75 CNS = test system: SNB-75 CNS
TK-10 renal = test system: TK-10 renal

Compound | TGI (CAKI-1 renal) [µM] | TGI (CCRF-CEM leukemia) [µM] | TGI (COLO 205 colon) [µM] | TGI (HCT-116 colon) [µM] | TGI (HOP-62 NSCLC) [µM] | TGI (NCI-H226 lung) [µM] | TGI (NCI-H522 lung) [µM] | TGI (SF-539 CNS) [µM] | TGI (SNB-75 CNS) [µM] | GI50 (CAKI-1 renal) [µM] | GI50 (CCRF-CEM leukemia) [µM] | GI50 (COLO 205 colon) [µM] | GI50 (HCT-116 colon) [µM] | GI50 (HOP-62 NSCLC) [µM] | GI50 (NCI-H226 lung) [µM] | GI50 (NCI-H522 lung) [µM] | GI50 (SF-539 CNS) [µM] | GI50 (SNB-75 CNS) [µM] | GI50 (TK-10 renal) [µM] | TGI (TK-10 renal) [µM]
N#CC(/C(CCCC(=O)Nc1cccc([N+](=O)[O-])c1)=N\NC(=O)c1c(O)ccc2ccccc12)c1nc2ccccc2s1 (stereo not drawn) | > 100 | > 100 | > 100 | > 100 | 95.4 | 72 | > 100 | 66.3 | > 100 |  |  |  |  |  |  |  |  |  |  | 
O=C1NC(=NCCc2ccc(Br)cc2)S/C1=C\c1ccc2ncccc2c1 | > 25 | > 25 | > 25 | > 25 | > 25 | > 25 | > 25 | > 25 | > 25 | > 20.3 | 21.1 | > 25 | 16.7 | > 25 | > 25 | 12.9 | 14.5 | > 25 | > 20.1 | > 25
N#Cc1c(N)nc(N2CCOCC2)c(C#N)c1-c1c(Cl)cccc1Cl | 12.2 | 46.6 | 22.8 | 12.2 | 17.8 | 73.8 | 8.38 | 49.8 | 9.66 | 2.24 | 4.91 | 7.14 | 3.07 | 3.52 | 15.2 | 2.36 | 12.2 | 1.75 | 20.9 | > 100
C(=N\Nc1ccc2ccccc2n1)/c1ccccn1 | 0.763 | > 100 | 8.96 | 13.9 | 6.98 | 19 | 11.8 | 6.83 | 51.2 | 0.257 | 0.371 | 0.41 | 0.368 | 0.431 | 0.508 | 0.319 | 0.362 | 1.1 | 0.375 | > 100
CN(C)N=Nc1ccc(S(N)(=O)=O)cc1 | > 100 | > 100 | > 100 | > 100 | > 100 | > 100 | > 100 | > 100 | > 100 |  |  |  |  |  |  |  |  |  |  | > 100
CN1CCN(c2ccc(NC3=CC(=O)c4ncncc4C3=O)cc2)CC1 | 2.68 | > 100 | 4.07 | 0.545 |  | 3.47 | 1.72 | 1.69 | 3.11 | 1.34 | 0.331 | 1.93 | 0.229 |  | 1.51 | 0.597 | 0.612 | 1.7 | 2.01 | 3.81
COc1ccc(-c2c(-c3ccc(C#N)c(F)c3)nc(N3CCC(N)CC3)n(C)c2=O)cc1F | 30.6 | 53 | 31.1 | > 100 | > 100 | > 100 | 30.7 | 29.3 | 27.7 | 13.8 | 17.6 | 13.3 | 13.1 | 17.1 | 50 | 13.6 | 13.8 | 10.9 | 12.8 | 32.4
Oc1[nH]c2ccccc2c1C=Nc1ccc(-n2cncn2)cc1 | > 25 | > 25 | > 25 | > 25 | > 22.2 | > 22.1 | > 25 | > 25 | > 25 | > 22.7 | 3.06 | > 25 | > 22.1 | > 13.8 | 8.34 | 10.7 | > 25 | > 25 | > 17.1 | > 25
C[C@]12CCC(=O)C[C@@H]1CC[C@@H]1[C@@H]2CC[C@]2(C)[C@@H](OC(=O)N(CCCl)N=O)CC[C@@H]12 | 12 |  | 4.72 | > 35.1 | 14.1 | 30.4 | 20.4 | 4.67 | 13.3 | 0.591 | 0.207 | 1.7 | 2.89 | 1.75 | 11.9 | 2.48 | 0.069 | 0.507 | 3.85 | 27.7
COc1ccc2c(c1)C(=O)c1c-2n(CCCN(C)C)c(=O)c2cc([N+](=O)[O-])ccc12 |  | < 0.01 | 12.9 | 0.21 | < 0.0447 | 1.53 | 0.898 | < 0.01 | 2.74 | < 0.01 | < 0.01 | 0.0483 | < 0.01 | < 0.01 | < 0.0227 | < 0.01 | < 0.01 | < 0.01 | 0.604 | 5.38
CC12CCc3ccccc3C1=NNC(=O)C2 (stereo not drawn) | > 100 | > 100 | > 100 | > 100 | > 100 | > 100 | > 100 | > 100 | > 100 |  |  |  |  |  |  |  |  |  |  | > 100
COc1cnccc1Nc1nc(-c2nn(Cc3c(F)cc(OCCO)cc3F)c3ccccc23)ncc1OC | 29.5 | > 100 | > 100 | 20.2 | 8.32 | 31.9 | 8.55 | 22.9 | 18.4 | 11.9 | 0.946 | 17.7 | 3.64 | 2.46 | 12.4 | 1.82 | 10.7 | 3.76 | 14.5 | 27.7
COc1ccc2nc3ccccc3c(NCCNCC(C)O)c2c1 (stereo not drawn) | 11.4 | 3.47 | 0.704 | 1.41 | 2.57 | 4.79 | 2.09 | 2.04 | 2.59 | 0.434 | 0.436 | 0.192 | 0.241 | 0.369 | 0.708 | 0.427 | 0.435 | 0.781 | 0.54 | 6.04
CC(=O)CC(=O)Nc1ccccc1C(F)(F)F | > 100 | > 100 | > 100 | > 100 | > 100 | > 100 | > 100 | > 100 | > 100 |  |  |  |  |  |  |  |  |  |  | > 100
Cc1ccc(-c2nc3sc(C)cn3c2/C=C2\C(=O)Nc3ccc(Cl)cc32)cc1 | 38.2 | 93.6 | > 100 | 24.7 | 20.8 | > 100 | 30.1 | 17.3 | 8.44 | 17 | 29.3 | 31 | 12.2 | 7.21 | 22.9 | 15.5 | 4.51 | 3.1 | 9.28 | 24.7
CC(=O)Nc1ccc(/C=c2\sc3nnc(-c4cccnc4)n3c2=O)cc1 | 35.3 | 53.9 | 29.8 | 28.9 | 52.6 | > 100 | 33.2 | 33.3 | 57.7 |  |  |  |  |  |  |  |  |  |  | 57.3
CCS(=O)(=O)c1ccc(OC)c(Nc2ncc(-c3cccc(F)c3)o2)c1 | > 25 | > 25 | > 25 | > 25 | > 25 | > 25 | > 25 | > 25 | > 25 | > 25 | > 25 | > 25 | > 25 | > 25 | 0.513 | > 25 | > 25 | > 10.6 | > 25 | > 25
COc1ccc2c(c1)/C(=N/OC(C)=O)c1c-2c(OC)nc2ccccc12 | > 100 | > 100 | > 100 | > 100 | > 100 | > 100 | > 100 | > 100 | > 100 | > 100 | > 100 | > 100 | > 100 | 83.7 | > 100 | > 100 | 72.9 | 18 | 79.1 | > 100
CC(=O)[CH-]C(=O)c1ccccc1.CC(=O)[CH-]C(=O)c1ccccc1.CC(=O)[CH-]C(=O)c1ccccc1.[Ga+3] | 80 | 35.7 | 32.3 | 29.8 | 60.9 | 43.5 | 25 | 32.3 | 69.3 | 30.8 | 4.39 | 17.7 | 15.5 | 29 | 16.8 | 12.1 | 16.5 | 20.3 | 24 | 68.6
CC(C)(C)[Si](C)(C)OC1[C@@H](COC(=O)NC(=O)CCl)O[C@@H](n2cnc3c(N)ncnc32)[C@H]1O[Si](C)(C)C(C)(C)C (stereo partly drawn) | 11.2 | 0.931 | 4.79 | 5.15 | 10.3 | 2.3 | 0.312 | 13.6 | 10.8 | 4.25 | 0.232 | 1.9 | 1.53 | 4.04 | 1.13 | 0.122 | 6.97 | 3.64 | 9.14 | 16.1
O=C1/C(=C/c2ccc([N+](=O)[O-])o2)Oc2ccc(Cl)cc21 | 3.61 | 2.24 | 4.08 | 2.01 | 23.9 | 3.97 | 2.79 | 3.97 | 5.44 | 1.7 | 0.429 | 1.89 | 0.648 | 4.53 | 1.78 | 1.31 | 1.82 | 1.6 | 2.14 | 3.85
O=C1/C(=C/c2ccc(C(F)(F)F)cc2)COc2ccc(O)c(O)c21 | 2.38 | 2.25 | 3.06 | 3.12 | 3.41 | 3.09 | 0.515 | 2.46 | 3.02 | 1.11 | 0.335 | 1.58 | 1.35 | 1.65 | 1.59 | 0.216 | 1.14 | 1.39 | 1.64 | 3.03
COc1ccc2c(c1)-c1c(c3cc(OC)ccc3n(CCN(C)C)c1=O)C2=O | 18.8 | 1.76 | 4.7 | 6.85 | 12.1 | 10.4 | 0.59 | 8.58 | 7.49 | 1.77 | 0.199 | 0.461 | 0.241 | 0.676 | 0.665 | 0.0843 | 1.99 | 1.36 | 1.65 | 6.98
CN(C)c1ccc2[nH]c3c(C(N)=O)cc(=O)c(=O)c=3oc2c1 | > 100 | > 100 | > 100 | 1.22 | > 100 | > 100 | 8.24 | 4.43 | 9.19 | 3.48 | 0.472 | 3.5 | 0.304 | 2.42 | 4.74 | 0.687 | 0.428 | 2.5 | 3.73 | > 100
N=C(CC(=O)Nc1ccccn1)c1ccccc1 | > 100 | > 100 | > 100 | > 100 | > 100 | > 100 | > 100 | > 100 | > 100 |  |  |  |  |  |  |  |  |  |  | > 100
COC(=O)CC1=C(C)/C(=C/c2[nH]c(-c3ccc[nH]3)cc2OC)N=C1C | 2.34 | 5.34 | 0.814 | 1.16 | 1.12 | 0.881 | 1.27 | 2.27 | 2.16 | 0.231 | 0.0768 | 0.123 | 0.0819 | 0.192 | 0.068 | 0.215 | 0.331 | 0.137 | 0.214 | 3.41
O=C1Cc2cc(CCN3CCNCC3)c(Cl)cc2N1 | > 100 | > 100 | > 100 | > 100 | > 100 | > 100 | > 100 | > 100 | 75.4 | 6.11 | 2.98 | 19.7 | 10 | 19.3 | > 100 | 4.86 | > 100 | 15.5 |  | 
